pIC50: −log10 of the molar value. Read-outs that look alike come from different tables or passages of the source.
How the values were obtained:
SNU-601 cells = assay: SNU-601 cell proliferation experiment (CellTiter-Glo, intracellular ATP); assay type: cell-based; conditions: SNU-601 human gastric cancer cells, 5 days, read-out: IC50 for inhibition of SNU-601 cell proliferation
Procedure: The following method is used to evaluate the inhibitory effect of the compounds of the present disclosure on SNU-601 cell proliferation according to the IC50 values by means of detecting the intracellular ATP content. The experimental method is briefly described as follows:
1. SNU-601, human gastric cancer tumor cells (Co-bioer, CBP60507)
SNU-601 cells were cultured in RPMI 1640 medium containing 10% FBS and passaged 2 to 3 times a week at a split ratio of 1:5 or 1:10. During passage, the cells were trypsinized and transferred to a centrifuge tube. The tube was centrifuged at 1000 rpm for 5 minutes, the supernatant medium was discarded, and fresh medium was added to resuspend the cells. 195 μL of cell suspension at a density of 5.128×10^3 cells/mL was added to a 96-well cell culture plate, and 200 μL of complete medium only was added to the periphery wells of the 96-well plate. The culture plate was incubated in an incubator for 24 hours (37° C., 5% CO2).
The sample to be tested was diluted to 2 mM with DMSO, diluted 3-fold serially to 10 concentrations. Blank and control wells were set. 10 μL of the solution containing the compound to be tested prepared in gradient concentrations was added to 50 μL of fresh medium. 5 μL of the above culture medium solution containing the compound was added to the culture plate. The culture plate was incubated in an incubator for 5 days (37° C., 5% CO2). 50 μL of CellTiter-Glo reagent was added to each well of the 96-well cell culture plate after discarding 100 μL/well, and the plate was shaken at room temperature in the dark for 10 min. The chemiluminescent signal values were read in PHERAstar, and data were processed using GraphPad software.
The inhibitory effect of the compounds of the present invention on SNU-601 cell proliferation can be determined by the test described above, and the measured IC50 values are shown in Table 3.

ATR enzyme = ATR enzyme (Homo sapiens (Human), UniProt Q13535); assay: Inhibitory effect on ATR enzyme (HTRF, phospho-P53); assay type: biochemical; conditions: 90 minutes incubation, 150 nM ATP final; read-out: IC50 for ATR enzyme inhibition
Procedure: Test Example 1. Inhibitory Effect of Compounds of the Present Invention on ATR Enzyme
The following method is used to determine the inhibitory effect of the compounds of the present invention on the ATR enzyme. The experimental method is briefly described as follows:
1. ATR enzyme (Eurofins Pharma Discovery Services, 14-953M)
2. GST-tagged P53 protein (Eurofins Pharma Discovery Services, 14-952M)
15 nM ATR enzyme, 80 nM P53 protein, 300 nM ATP (the final concentrations were 40 nM and 150 nM, respectively), and small molecule compounds of various concentrations (the final concentrations (nM) of the ten points were 2985.0, 895.5, 298.5, 110.56, 33.17, 11.06, 4.09, 1.23, 0.41 and 0.15, respectively, and the final dimethyl sulfoxide concentration was 0.498%) were mixed and incubated at room temperature for 90 minutes. 10 μL of 2× cocktail buffer was added to the mixture of ATR, compound and substrate in the assay plate (anti-phospho-p53-Eu and anti-GST-d2 were diluted in the assay buffer). The resulting mixture was centrifuged at 1000 rpm for 30 seconds, and incubated overnight at 4° C. in the dark (a total of 20 μl in each well). The FRET signal (endpoint) was measured in the Envision instrument (HTRF 665/612 ratio was calculated at 665 nm emission and 612 nm emission). Data were processed using GraphPad software.
The inhibitory activity of the compounds of the present invention on the ATR enzyme can be determined by the test described above, and the measured IC50 values are shown in Table 1.

Sequence of ATR enzyme (Q13535 whole entry): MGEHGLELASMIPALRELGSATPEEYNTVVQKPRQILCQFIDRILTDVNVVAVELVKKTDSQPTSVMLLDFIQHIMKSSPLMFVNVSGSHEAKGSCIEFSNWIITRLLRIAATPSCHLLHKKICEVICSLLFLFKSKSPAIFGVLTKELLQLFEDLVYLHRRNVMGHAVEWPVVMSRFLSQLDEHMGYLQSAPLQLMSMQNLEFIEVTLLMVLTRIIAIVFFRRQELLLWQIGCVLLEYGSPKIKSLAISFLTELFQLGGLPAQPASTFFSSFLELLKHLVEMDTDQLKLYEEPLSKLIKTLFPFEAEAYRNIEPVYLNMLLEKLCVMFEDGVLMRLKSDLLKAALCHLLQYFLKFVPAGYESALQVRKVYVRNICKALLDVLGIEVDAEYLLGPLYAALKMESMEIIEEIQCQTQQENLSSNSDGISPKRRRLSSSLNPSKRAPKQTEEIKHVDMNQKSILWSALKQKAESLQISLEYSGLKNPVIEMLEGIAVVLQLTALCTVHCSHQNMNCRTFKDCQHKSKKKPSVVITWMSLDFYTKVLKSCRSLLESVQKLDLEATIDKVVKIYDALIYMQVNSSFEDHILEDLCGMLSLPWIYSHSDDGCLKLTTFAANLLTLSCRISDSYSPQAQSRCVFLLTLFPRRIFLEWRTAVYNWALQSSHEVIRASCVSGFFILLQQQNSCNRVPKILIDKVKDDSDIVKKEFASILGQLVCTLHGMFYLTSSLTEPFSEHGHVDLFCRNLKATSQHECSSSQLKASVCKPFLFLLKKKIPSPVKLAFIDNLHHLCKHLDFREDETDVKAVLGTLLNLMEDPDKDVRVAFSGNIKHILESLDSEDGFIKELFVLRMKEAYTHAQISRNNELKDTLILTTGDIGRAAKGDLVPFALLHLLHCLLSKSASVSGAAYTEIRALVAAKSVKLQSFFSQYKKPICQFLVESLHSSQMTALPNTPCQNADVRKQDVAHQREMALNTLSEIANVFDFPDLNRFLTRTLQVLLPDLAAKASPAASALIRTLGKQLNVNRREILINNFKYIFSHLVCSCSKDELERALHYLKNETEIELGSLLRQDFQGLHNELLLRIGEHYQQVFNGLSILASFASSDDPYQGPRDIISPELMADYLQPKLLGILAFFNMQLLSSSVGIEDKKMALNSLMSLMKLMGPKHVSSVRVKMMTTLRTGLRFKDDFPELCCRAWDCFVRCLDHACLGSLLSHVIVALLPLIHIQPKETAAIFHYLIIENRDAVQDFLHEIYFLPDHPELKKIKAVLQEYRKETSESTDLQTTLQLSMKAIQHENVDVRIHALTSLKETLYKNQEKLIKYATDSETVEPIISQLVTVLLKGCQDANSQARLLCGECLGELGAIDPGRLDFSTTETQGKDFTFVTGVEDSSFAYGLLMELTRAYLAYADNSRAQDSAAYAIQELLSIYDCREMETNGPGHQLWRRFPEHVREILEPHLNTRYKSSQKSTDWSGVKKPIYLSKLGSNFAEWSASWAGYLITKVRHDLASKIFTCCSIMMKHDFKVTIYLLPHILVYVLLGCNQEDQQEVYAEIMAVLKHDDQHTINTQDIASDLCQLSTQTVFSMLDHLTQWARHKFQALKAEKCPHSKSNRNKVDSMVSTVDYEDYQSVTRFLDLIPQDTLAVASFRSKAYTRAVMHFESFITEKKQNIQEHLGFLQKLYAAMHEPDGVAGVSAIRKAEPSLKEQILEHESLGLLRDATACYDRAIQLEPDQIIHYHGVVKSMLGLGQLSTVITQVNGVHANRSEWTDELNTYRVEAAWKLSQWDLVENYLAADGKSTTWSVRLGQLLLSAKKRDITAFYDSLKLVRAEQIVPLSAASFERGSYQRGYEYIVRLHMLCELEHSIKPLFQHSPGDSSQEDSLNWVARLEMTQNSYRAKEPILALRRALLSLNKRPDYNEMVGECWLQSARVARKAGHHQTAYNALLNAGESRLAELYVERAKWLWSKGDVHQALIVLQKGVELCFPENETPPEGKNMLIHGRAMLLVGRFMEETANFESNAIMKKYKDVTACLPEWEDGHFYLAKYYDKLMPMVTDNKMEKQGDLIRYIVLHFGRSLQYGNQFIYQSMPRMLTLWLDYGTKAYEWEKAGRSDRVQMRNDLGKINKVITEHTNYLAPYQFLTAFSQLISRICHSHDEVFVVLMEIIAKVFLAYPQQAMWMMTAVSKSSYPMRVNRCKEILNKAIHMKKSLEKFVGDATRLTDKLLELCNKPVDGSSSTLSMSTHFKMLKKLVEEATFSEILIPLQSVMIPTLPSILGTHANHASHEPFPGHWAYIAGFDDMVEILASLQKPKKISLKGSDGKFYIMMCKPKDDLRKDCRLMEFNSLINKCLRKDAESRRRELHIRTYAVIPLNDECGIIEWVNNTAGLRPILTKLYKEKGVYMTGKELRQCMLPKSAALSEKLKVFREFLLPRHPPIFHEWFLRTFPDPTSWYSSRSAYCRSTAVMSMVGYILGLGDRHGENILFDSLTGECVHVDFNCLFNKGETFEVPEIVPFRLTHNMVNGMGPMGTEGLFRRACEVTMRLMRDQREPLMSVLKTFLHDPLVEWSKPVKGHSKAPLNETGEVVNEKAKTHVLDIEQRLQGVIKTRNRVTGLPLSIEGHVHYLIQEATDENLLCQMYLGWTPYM
Sequence of ATR enzyme (Q8WXE1 whole entry partner): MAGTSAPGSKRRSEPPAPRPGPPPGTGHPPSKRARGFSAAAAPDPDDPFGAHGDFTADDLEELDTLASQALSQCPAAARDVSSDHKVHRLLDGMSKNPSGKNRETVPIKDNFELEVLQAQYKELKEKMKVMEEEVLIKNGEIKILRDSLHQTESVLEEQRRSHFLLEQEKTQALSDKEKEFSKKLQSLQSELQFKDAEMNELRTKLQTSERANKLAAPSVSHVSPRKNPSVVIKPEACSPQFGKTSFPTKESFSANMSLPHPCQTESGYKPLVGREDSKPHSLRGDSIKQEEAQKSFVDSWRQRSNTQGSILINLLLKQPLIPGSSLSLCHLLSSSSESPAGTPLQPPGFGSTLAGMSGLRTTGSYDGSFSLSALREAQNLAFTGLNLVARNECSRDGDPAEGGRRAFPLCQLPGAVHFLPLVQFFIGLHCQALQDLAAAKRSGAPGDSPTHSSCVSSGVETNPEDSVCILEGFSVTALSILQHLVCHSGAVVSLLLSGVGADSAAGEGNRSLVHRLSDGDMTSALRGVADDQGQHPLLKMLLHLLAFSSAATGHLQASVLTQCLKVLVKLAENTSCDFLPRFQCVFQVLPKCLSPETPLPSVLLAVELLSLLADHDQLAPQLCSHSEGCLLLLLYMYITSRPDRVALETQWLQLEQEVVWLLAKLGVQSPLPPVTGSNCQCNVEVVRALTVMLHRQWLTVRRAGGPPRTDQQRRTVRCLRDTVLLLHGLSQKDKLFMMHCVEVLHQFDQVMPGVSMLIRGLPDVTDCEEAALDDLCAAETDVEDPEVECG

Row | pIC50 (SNU-601 cells) | pIC50 (ATR enzyme) | pIC50 (SNU-601 cells; 120 h) | SMILES
1 | 7.00 to 8.00 | ≥ 8.00 | – | C[C@@H]1COCCN1c1cc(-c2ccc(NC(=O)c3cccnc3)cc2)c2cnn(-c3cc[nH]n3)c2n1 [Example 214]
2 | 7.00 to 8.00 | ≥ 8.00 | – | Cc1cc(N2CCCCC2=O)ccc1-c1cc(N2CCOC[C@H]2C)nc2c1cnn2-c1cc[nH]n1 [Example 168]
3 | – | ≥ 8.00 | 7.00 to 8.00 | C[C@@H]1COCCN1c1cc(-c2ccc(N3CCCCC3=O)cc2C#N)c2cnn(-c3cc[nH]n3)c2n1 [Example 224]
4 | 7.00 to 8.00 | ≥ 8.00 | – | C[C@@H]1COCCN1c1cc(-c2ccc(NC(=O)C3CCOC3)cc2)c2cnn(-c3cc[nH]n3)c2n1 (stereo partly drawn) [Example 154]
5 | – | ≥ 8.00 | 7.00 to 8.00 | C[C@@H]1COCCN1c1cc(-c2cc(NC(=O)C3CC3)on2)c2cnn(-c3cc[nH]n3)c2n1 [Example 260]
6 | – | ≥ 8.00 | 7.00 to 8.00 | Cc1cc(N2CC3CCC(O3)C2=O)ccc1-c1cc(N2CCOC[C@H]2C)nc2c1cnn2-c1cc[nH]n1 (stereo partly drawn) [Example 254]
7 | – | ≥ 8.00 | 7.00 to 8.00 | C[C@@H]1COCCN1c1cc(-c2ccc(NC(=O)C3CCC3)cc2)c2cnn(-c3cc[nH]n3)c2n1 [Example 32, (R)-N-(4-(6-(3-methylmorpholinyl)-1-(1H-pyrazolyl-3-yl)-1H-pyrazolyl[3,4-b]pyridin-4-yl)phenyl)cyclobutanecarboxamide]
8 | 7.00 to 8.00 | ≥ 8.00 | – | C[C@@H]1COCCN1c1cc(-c2ccc(NC(=O)C3CC(N)C3)cc2)c2cnn(-c3cc[nH]n3)c2n1 (stereo partly drawn) [Example 158]
9 | – | ≥ 8.00 | 7.00 to 8.00 | C[C@@H]1COCCN1c1cc(-c2ccc(N3CC4CCC(O4)C3=O)c(F)c2)c2cnn(-c3cc[nH]n3)c2n1 (stereo partly drawn) [Example 200, 3-(2-fluoro-4-(6-((R)-3-methylmorpholino)-1-(1H-pyrazol-3-yl)-1H-pyrazolo[3,4-b]pyridin-4-yl)phenyl)-8-oxa-3-azabicyclo[3.2.1]octan-2-one]
10 | – | ≥ 8.00 | 7.00 to 8.00 | Cc1cc(-c2cc(N3CCOC[C@H]3C)nc3c2cnn3-c2cc[nH]n2)ccc1NC(=O)N1CCCC1 [Example 226]
11 | – | ≥ 8.00 | 7.00 to 8.00 | C[C@@H]1COCCN1c1cc(-c2ccc(NC(=O)C(F)F)cc2F)c2cnn(-c3cc[nH]n3)c2n1 [Example 236]
12 | 7.00 to 8.00 | ≥ 8.00 | – | C[C@@H]1COCCN1c1cc(-c2ccc(N3CCCN(C)C3=O)cc2)c2cnn(-c3cc[nH]n3)c2n1 [Example 62]
13 | – | 7.30 to 8.00 | 7.00 to 8.00 | C[C@@H]1COCCN1c1cc(N2CC(NC(=O)C3CCC3)C2)c2cnn(-c3cc[nH]n3)c2n1 [Example 265]
14 | 7.00 to 8.00 | ≥ 8.00 | – | CCN1CCN(c2ccc(-c3cc(N4CCOC[C@H]4C)nc4c3cnn4-c3cc[nH]n3)cc2)C1=O [Example 216]
15 | – | ≥ 8.00 | 7.00 to 8.00 | C[C@@H]1COCCN1c1cc(-c2ccc(N3C(=O)C4C=CC3C4)cc2F)c2cnn(-c3cc[nH]n3)c2n1 (stereo partly drawn) [Example 262]
16 | – | ≥ 8.00 | 7.00 to 8.00 | C[C@@H]1COCCN1c1cc(-c2ccc(NC(=O)N3CCCC3)cc2F)c2cnn(-c3cc[nH]n3)c2n1 [Example 245]
17 | – | ≥ 8.00 | 7.00 to 8.00 | CCn1ccn(-c2ccc(-c3cc(N4CCOC[C@H]4C)nc4c3cnn4-c3cc[nH]n3)cc2)c1=O [Example 222]
18 | – | ≥ 8.00 | 7.00 to 8.00 | C[C@@H]1COCCN1c1cc(-c2c(F)cc(N3CCCCC3=O)cc2F)c2cnn(-c3cc[nH]n3)c2n1 [Example 240]
19 | – | ≥ 8.00 | 7.00 to 8.00 | C[C@@H]1COCCN1c1cc(-c2ccc(N3CC4CCC(O4)C3=O)nc2)c2cnn(-c3cc[nH]n3)c2n1 (stereo partly drawn) [Example 255]
20 | – | ≥ 8.00 | 7.00 to 8.00 | CC(=O)Nc1cccc(-c2cc(N3CCOC[C@H]3C)nc3c2cnn3-c2cc[nH]n2)c1 [Example 149]
21 | 7.00 to 8.00 | ≥ 8.00 | – | CCC(=O)Nc1ccc(-c2cc(N3CCOC[C@H]3C)nc3c2cnn3-c2cc[nH]n2)cc1 [Example 150]
22 | – | ≥ 8.00 | 7.00 to 8.00 | C[C@@H]1COCCN1c1cc(-c2ccc(N3C(=O)C4CCC3C4)cc2F)c2cnn(-c3cc[nH]n3)c2n1 (stereo partly drawn) [Example 263]

Row | pIC50 (SNU-601 cells) | pIC50 (ATR enzyme) | pIC50 (SNU-601 cells; 120 h) | SMILES
23 | – | ≥ 8.00 | 7.00 to 8.00 | C[C@@H]1COCCN1c1cc(-c2cnc(N3CC4CCC(O4)C3=O)cc2F)c2cnn(-c3cc[nH]n3)c2n1 (stereo partly drawn) [Example 257]
24 | 7.00 to 8.00 | ≥ 8.00 | – | CC(=O)N1CCCC(C(=O)Nc2ccc(-c3cc(N4CCOC[C@H]4C)nc4c3cnn4-c3cc[nH]n3)cc2)C1 (stereo partly drawn) [Example 162]
25 | – | ≥ 8.00 | 7.00 to 8.00 | C[C@@H]1COCCN1c1cc(-c2ccc(N3C(=O)C4CCC3CC4)cc2F)c2cnn(-c3cc[nH]n3)c2n1 [Example 264]
26 | 7.00 to 8.00 | ≥ 8.00 | – | C[C@@H]1COCCN1c1cc(-c2cccc(N3CCCC3=O)c2)c2cnn(-c3cc[nH]n3)c2n1 [Example 58]
27 | – | ≥ 8.00 | 7.00 to 8.00 | C[C@@H]1COCCN1c1cc(-c2ccc(N3CCCCC3=O)cc2F)c2cnn(-c3cc[nH]n3)c2n1 [Example 238]
28 | 7.00 to 8.00 | ≥ 8.00 | – | C[C@@H]1COCCN1c1cc(C2(C#N)CCN(c3cccc(F)c3)CC2)c2cnn(-c3cc[nH]n3)c2n1 [Example 208]
29 | – | ≥ 8.00 | 7.00 to 8.00 | C[C@@H]1COCCN1c1cc(-c2ccc(NC(=O)N3CCCC3)nc2)c2cnn(-c3cc[nH]n3)c2n1 [Example 250]
30 | – | ≥ 8.00 | 7.00 to 8.00 | C[C@@H]1COCCN1c1cc(-c2ccc(N3CC=CCC3=O)cc2F)c2cnn(-c3cc[nH]n3)c2n1 [Example 243]
31 | 7.00 to 8.00 | ≥ 8.00 | – | C[C@@H]1COCCN1c1cc(-c2ccc(N3CCCNC3=O)cc2)c2cnn(-c3cc[nH]n3)c2n1 [Example 146]
32 | – | ≥ 8.00 | 7.00 to 8.00 | C[C@@H]1COCCN1c1cc(-c2ccc(NC(=O)C3CC3)cc2)c2cnn(-c3cc[nH]n3)c2n1 [Example 218]
33 | – | – | 7.00 to 8.00 | CCC(CC)C(=O)Nc1ccc(-c2cc(N3CCOC[C@H]3C)nc3c2cnn3-c2cc[nH]n2)cc1 [Example 151]
34 | – | ≥ 8.00 | 7.00 to 8.00 | Cc1cc(-c2cc(N3CCOC[C@H]3C)nc3c2cnn3-c2cc[nH]n2)ccc1N1CC2CCC(O2)C1=O (stereo partly drawn) [Example 256]
35 | – | ≥ 8.00 | 7.00 to 8.00 | Cc1cc(NC(=O)N2CCCC2)cc(C)c1-c1cc(N2CCOC[C@H]2C)nc2c1cnn2-c1cc[nH]n1 [Example 251]
36 | – | – | 7.00 to 8.00 | C[C@@H]1COCCN1c1cc(-c2ccc(N3CC4CCC(O4)C3=O)cc2F)c2cnn(-c3cc[nH]n3)c2n1 (stereo partly drawn) [Example 199]
37 | – | ≥ 8.00 | 7.00 to 8.00 | CC1CCCN(c2cc(F)c(-c3cc(N4CCOC[C@H]4C)nc4c3cnn4-c3cc[nH]n3)c(F)c2)C1=O (stereo partly drawn) [Example 241]
38 | – | – | 7.00 to 8.00 | C[C@@H]1COCCN1c1cc(-c2ccc(NC(=O)c3ccncn3)cc2)c2cnn(-c3cc[nH]n3)c2n1 [Example 165]
39 | – | – | 7.00 to 8.00 | C[C@@H]1COCCN1c1cc(-c2cc(C#N)c(N3CCCCC3=O)cc2F)c2cnn(-c3cc[nH]n3)c2n1 [Example 259]
40 | – | – | 7.00 to 8.00 | C[C@@H]1COCCN1c1cc(-c2ccc(NC(=O)C3CCN(C)C3)cc2)c2cnn(-c3cc[nH]n3)c2n1 (stereo partly drawn) [Example 213]
41 | – | – | 7.00 to 8.00 | C[C@@H]1COCCN1c1cc(-c2ccc3c(c2)CCN3C(=O)c2ccncc2)c2cnn(-c3cc[nH]n3)c2n1 [Example 183]
42 | – | – | 7.00 to 8.00 | C[C@@H]1COCCN1c1cc(-c2ccc(NC(=O)C(F)F)cc2)c2cnn(-c3cc[nH]n3)c2n1 [Example 217]
43 | 7.00 to 8.00 | – | – | C[C@@H]1COCCN1c1cc(C#CC2(C#N)CCCNC2)c2cnn(-c3cc[nH]n3)c2n1 (stereo partly drawn) [Example 82]
